In ChEMBL document CHEMBL4765362, “Thirty Years of HDAC Inhibitors: 2020 Insight and Hindsight” (J Med Chem, 2020):

How the values were obtained:
[1] = target: Histone deacetylase 3/Nuclear receptor corepressor 2 (HDAC3/NCoR2) (Homo sapiens, UniProt O15379); experiment: Inhibition of human full length recombinant HDAC3/ NcoR2 using p53 (379 to 382 residues) (RHKK(Ac)AMC) as substrate preincubated for 5 to 10 mins followed by substrate addition and measured after 2 hrs by fluorescence method; assay type: protein-complex assay
[2] = target: T1, Histone deacetylase 8 (Homo sapiens, UniProt Q9BY41); experiment: Inhibition of human full length recombinant HDAC8 using p53 (379 to 382 residues) (RHK(Ac)K(Ac)AMC as substrate preincubated for 5 to 10 mins followed by substrate addition and measured after 2 hrs by fluorescence method
T1 sequence (Q9BY41 whole entry): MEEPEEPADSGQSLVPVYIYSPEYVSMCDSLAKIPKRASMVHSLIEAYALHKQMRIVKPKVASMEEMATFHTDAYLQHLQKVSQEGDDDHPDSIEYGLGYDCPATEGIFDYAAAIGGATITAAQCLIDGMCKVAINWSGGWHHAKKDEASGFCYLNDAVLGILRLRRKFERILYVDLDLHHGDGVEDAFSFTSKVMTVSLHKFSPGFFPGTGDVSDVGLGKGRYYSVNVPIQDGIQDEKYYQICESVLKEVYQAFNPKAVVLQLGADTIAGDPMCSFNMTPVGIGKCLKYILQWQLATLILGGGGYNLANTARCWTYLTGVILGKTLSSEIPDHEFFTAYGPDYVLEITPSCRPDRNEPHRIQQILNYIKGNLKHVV

[3] = target: T2, Histone deacetylase 5 (Homo sapiens, UniProt Q9UQL6); experiment: Inhibition of human full length recombinant HDAC5 using p53 (379 to 382 residues) Ac-LGK(TFA)-AMC as substrate preincubated for 5 to 10 mins followed by substrate addition and measured after 2 hrs by fluorescence method
T2 sequence (Q9UQL6 whole entry, the tested form may be a part): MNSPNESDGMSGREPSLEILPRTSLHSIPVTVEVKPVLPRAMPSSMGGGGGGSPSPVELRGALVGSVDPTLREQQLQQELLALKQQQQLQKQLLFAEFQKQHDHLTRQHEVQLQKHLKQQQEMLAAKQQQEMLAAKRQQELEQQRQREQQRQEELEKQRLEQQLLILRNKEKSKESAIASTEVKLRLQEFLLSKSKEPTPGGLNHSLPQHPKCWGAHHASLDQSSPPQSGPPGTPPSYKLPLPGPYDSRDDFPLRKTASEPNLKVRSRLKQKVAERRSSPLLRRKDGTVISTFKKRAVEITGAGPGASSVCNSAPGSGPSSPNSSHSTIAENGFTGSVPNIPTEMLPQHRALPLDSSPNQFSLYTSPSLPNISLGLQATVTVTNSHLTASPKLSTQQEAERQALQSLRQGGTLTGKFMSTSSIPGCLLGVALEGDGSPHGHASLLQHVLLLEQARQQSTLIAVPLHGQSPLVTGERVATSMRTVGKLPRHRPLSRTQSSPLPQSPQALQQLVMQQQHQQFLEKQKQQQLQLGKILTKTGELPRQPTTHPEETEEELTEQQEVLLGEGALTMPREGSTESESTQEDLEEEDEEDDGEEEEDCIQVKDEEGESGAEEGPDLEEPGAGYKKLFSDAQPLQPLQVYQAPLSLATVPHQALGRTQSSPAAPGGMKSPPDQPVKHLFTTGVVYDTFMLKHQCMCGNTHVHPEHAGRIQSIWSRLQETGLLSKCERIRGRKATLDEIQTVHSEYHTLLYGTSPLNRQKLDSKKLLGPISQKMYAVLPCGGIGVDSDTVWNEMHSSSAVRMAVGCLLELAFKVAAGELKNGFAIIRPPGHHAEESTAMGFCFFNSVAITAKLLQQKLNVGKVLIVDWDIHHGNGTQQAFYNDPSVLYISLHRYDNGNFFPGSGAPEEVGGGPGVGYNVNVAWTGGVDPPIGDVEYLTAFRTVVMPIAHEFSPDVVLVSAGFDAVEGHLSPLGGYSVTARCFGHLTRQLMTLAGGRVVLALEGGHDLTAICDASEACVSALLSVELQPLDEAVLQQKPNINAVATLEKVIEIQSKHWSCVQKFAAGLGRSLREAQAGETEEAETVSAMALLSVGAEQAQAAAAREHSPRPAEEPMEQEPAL

[4] = target: T3, Histone deacetylase 7 (Homo sapiens, UniProt Q8WUI4); experiment: Inhibition of human full length recombinant HDAC7 using p53 (379 to 382 residues) Ac-LGK(TFA)-AMC as substrate preincubated for 5 to 10 mins followed by substrate addition and measured after 2 hrs by fluorescence method
T3 sequence (Q8WUI4 whole entry): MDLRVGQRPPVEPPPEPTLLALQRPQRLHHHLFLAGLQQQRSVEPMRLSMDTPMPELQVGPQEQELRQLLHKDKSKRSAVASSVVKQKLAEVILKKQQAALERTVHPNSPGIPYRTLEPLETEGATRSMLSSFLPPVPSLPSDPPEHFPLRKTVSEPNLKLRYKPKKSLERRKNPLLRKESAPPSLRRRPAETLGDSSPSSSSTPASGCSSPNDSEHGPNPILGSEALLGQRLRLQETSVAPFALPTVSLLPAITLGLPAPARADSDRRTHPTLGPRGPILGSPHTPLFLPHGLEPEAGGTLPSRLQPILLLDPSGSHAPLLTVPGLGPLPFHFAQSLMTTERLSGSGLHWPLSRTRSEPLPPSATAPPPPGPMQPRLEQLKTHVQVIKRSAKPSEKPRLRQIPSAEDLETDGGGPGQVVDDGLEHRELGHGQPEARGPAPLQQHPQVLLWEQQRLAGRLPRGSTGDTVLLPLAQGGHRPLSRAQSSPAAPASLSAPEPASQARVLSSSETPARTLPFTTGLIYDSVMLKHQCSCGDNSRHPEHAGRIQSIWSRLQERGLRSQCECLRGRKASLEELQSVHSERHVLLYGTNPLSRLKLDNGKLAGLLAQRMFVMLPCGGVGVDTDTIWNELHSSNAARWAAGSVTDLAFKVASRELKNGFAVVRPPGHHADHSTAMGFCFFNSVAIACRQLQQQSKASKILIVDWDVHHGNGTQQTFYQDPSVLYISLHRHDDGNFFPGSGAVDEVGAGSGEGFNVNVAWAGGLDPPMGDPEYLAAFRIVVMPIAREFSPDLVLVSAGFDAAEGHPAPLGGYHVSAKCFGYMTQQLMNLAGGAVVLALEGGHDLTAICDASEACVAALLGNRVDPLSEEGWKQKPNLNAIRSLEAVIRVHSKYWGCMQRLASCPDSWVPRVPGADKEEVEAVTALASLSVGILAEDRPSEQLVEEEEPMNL

[5] = target: T4, Histone deacetylase 9 (Homo sapiens, UniProt Q9UKV0); experiment: Inhibition of human full length recombinant HDAC9 using p53 (379 to 382 residues) Ac-LGK(TFA)-AMC as substrate preincubated for 5 to 10 mins followed by substrate addition and measured after 2 hrs by fluorescence method
T4 sequence (Q9UKV0 whole entry, the tested form may be a part): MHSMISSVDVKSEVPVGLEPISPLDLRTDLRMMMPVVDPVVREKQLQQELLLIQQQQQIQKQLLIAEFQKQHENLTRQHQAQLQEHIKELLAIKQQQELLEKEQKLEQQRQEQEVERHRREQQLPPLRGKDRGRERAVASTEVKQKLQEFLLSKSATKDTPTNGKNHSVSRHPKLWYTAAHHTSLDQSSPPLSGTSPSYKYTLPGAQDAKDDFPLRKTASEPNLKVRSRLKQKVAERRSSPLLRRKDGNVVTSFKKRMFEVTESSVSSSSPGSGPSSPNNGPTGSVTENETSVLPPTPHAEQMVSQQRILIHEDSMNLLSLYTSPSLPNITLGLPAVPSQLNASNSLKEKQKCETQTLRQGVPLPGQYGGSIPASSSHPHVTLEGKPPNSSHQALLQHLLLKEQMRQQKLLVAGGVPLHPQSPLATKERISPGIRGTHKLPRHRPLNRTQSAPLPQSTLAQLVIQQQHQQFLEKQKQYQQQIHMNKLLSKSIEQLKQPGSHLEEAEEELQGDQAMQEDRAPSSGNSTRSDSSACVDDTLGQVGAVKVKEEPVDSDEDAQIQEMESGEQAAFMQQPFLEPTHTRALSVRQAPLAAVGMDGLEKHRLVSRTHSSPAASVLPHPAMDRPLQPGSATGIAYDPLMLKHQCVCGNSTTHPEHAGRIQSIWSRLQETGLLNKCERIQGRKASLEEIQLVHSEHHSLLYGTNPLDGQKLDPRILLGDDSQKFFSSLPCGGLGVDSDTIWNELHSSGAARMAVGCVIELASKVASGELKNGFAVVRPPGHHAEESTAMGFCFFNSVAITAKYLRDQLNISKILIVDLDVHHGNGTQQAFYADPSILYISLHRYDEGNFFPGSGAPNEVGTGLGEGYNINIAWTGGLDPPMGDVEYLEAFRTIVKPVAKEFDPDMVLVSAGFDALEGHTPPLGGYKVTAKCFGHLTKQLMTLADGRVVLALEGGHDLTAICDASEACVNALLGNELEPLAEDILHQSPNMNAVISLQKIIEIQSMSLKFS

[6] = target: T5, Polyamine deacetylase HDAC10 (Homo sapiens, UniProt Q969S8); experiment: Inhibition of human full length recombinant HDAC10 using p53 (379 to 382 residues) (RHKK(Ac)AMC) as substrate preincubated for 5 to 10 mins followed by substrate addition and measured after 2 hrs by fluorescence method
T5 sequence (Q969S8 whole entry): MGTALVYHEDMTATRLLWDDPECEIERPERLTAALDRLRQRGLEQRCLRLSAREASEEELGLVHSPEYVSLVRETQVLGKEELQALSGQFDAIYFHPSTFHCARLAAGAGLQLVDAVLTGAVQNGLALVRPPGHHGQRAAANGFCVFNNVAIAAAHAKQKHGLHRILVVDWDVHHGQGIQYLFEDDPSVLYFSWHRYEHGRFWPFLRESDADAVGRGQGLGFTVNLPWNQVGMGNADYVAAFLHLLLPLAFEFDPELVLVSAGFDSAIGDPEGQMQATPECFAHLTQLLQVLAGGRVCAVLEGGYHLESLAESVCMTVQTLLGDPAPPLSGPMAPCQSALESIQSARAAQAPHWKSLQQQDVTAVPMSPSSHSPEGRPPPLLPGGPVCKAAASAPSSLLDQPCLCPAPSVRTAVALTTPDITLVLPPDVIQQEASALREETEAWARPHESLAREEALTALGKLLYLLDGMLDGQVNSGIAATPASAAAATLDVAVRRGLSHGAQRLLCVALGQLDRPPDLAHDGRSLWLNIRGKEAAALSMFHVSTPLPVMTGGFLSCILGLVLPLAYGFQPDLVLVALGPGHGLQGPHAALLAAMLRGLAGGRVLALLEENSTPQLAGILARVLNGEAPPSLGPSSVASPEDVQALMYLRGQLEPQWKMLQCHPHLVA

[7] = target: T6, Histone deacetylase 11 (Homo sapiens, UniProt Q96DB2); experiment: Inhibition of human full length recombinant HDAC11 using p53 (379 to 382 residues) (RHKK(Ac)AMC) as substrate preincubated for 5 to 10 mins followed by substrate addition and measured after 2 hrs by fluorescence method
T6 sequence (Q96DB2 whole entry): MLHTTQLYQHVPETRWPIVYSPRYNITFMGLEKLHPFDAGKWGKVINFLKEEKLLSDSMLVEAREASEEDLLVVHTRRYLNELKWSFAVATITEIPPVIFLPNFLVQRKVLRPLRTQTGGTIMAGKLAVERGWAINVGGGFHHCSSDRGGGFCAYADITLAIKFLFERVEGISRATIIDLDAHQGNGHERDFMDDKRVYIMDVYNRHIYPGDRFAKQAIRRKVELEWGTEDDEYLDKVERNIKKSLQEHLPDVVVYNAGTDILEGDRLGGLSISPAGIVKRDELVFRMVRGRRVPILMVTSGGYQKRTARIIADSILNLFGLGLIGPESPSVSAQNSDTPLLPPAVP

[8] = target: T7, Histone deacetylase 2 (Homo sapiens, UniProt Q92769)
T7 sequence (Q92769 whole entry, the tested form may be a part): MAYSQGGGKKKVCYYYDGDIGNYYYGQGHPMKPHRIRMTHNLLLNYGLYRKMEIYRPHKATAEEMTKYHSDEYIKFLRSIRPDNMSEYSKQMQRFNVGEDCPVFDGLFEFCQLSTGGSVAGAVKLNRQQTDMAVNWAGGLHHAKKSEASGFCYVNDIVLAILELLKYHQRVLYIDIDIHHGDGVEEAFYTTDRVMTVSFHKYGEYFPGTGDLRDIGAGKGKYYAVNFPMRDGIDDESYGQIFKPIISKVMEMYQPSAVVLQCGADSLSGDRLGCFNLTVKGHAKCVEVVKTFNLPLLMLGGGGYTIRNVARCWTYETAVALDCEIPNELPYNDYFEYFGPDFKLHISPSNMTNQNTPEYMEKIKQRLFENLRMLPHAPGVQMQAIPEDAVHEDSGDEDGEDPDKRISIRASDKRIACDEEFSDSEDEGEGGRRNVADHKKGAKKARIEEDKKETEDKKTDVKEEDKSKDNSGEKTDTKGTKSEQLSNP

[9] = organism: Homo sapiens; experiment: Selectivity ratio of IC50 for human C-terminal His-tagged HDAC3 (1 to 428 residues)/human N-terminal GST-tagged NcoR2 (395 to 489 residues) expressed in sf9 cells to IC50 for HDAC6 (unknown origin)
[10] = organism: Homo sapiens; experiment: Selectivity ratio of IC50 for HDAC1 (unknown origin) to IC50 for HDAC6 (unknown origin)
[11] = organism: Homo sapiens; experiment: Selectivity ratio of IC50 for human HDAC2 expressed in Sf9 cells to IC50 for HDAC6 (unknown origin)
[12] = target: T8, Protein deacetylase HDAC6 (Homo sapiens, UniProt Q9UBN7); experiment: Inhibition of HDAC6 (unknown origin) using acetyl-lysine tripeptide substrate as substrate preincubated for 24 hrs followed substrate addition and shaken for 5 secs and measured over 30 mins
T8 sequence (Q9UBN7 whole entry): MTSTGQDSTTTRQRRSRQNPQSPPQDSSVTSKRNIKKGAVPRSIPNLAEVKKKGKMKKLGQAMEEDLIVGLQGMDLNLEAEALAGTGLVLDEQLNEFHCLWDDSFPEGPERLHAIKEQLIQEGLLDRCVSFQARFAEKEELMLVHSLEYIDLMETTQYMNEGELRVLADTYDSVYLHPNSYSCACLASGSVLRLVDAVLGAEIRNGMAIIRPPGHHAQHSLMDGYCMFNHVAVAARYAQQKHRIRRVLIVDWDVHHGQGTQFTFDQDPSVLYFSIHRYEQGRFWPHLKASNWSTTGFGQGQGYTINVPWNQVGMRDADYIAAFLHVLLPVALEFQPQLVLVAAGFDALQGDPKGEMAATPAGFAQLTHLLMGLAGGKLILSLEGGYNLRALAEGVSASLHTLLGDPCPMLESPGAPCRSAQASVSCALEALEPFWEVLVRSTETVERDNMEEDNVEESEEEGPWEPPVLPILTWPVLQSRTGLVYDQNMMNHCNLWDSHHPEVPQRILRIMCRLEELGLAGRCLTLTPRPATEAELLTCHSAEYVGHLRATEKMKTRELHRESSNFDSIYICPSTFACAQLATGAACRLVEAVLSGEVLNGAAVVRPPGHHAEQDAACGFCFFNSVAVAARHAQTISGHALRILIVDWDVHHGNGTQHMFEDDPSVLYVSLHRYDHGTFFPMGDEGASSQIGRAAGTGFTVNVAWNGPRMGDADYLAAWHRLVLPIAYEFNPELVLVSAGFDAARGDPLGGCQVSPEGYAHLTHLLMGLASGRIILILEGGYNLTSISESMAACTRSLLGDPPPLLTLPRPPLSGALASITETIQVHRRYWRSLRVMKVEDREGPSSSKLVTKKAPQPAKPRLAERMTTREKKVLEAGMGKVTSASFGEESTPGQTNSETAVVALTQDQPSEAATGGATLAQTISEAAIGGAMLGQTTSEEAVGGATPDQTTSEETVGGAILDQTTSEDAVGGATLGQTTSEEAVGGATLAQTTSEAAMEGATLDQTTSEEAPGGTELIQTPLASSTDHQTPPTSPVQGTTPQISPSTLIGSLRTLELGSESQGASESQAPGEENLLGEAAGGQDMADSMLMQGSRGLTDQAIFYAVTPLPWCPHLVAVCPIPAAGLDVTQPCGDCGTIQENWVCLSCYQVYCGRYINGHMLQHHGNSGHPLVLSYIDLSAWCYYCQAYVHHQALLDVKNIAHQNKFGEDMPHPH

[13] = organism: Homo sapiens; experiment: Selectivity ratio of IC50 for human HDAC4 expressed in Sf9 cells to IC50 for HDAC6 (unknown origin)
[14] = organism: Homo sapiens; experiment: Selectivity ratio of IC50 for human HDAC5 to IC50 for HDAC6 (unknown origin)
[15] = organism: Homo sapiens; experiment: Selectivity ratio of IC50 for human N-terminal GST-tagged HDAC7 (518 to end residues) expressed in baculovirus infected sf9 cells to IC50 for HDAC6 (unknown origin)
[16] = organism: Homo sapiens; experiment: Selectivity ratio of IC50 for C-terminal His-tagged human HDAC9 (604 to 1066 residues) expressed in baculovirus infected sf9 cells to IC50 for HDAC6 (unknown origin)
[17] = organism: Homo sapiens; experiment: Selectivity ratio of IC50 for recombinant human C-terminal His-tagged HDAC8 expressed in baculovirus infected sf9 cells to IC50 for HDAC6 (unknown origin)
[18] = target: Histone deacetylase 1 (Homo sapiens, UniProt Q13547); experiment: Inhibition of HDAC1 (unknown origin) using carboxyfluorescein (FAM)-labeled acetylated peptide substrate preincubated for 3 hrs by microfluidic capillary electrophoresis
Chain of Histone deacetylase 1 (Q13547 whole entry): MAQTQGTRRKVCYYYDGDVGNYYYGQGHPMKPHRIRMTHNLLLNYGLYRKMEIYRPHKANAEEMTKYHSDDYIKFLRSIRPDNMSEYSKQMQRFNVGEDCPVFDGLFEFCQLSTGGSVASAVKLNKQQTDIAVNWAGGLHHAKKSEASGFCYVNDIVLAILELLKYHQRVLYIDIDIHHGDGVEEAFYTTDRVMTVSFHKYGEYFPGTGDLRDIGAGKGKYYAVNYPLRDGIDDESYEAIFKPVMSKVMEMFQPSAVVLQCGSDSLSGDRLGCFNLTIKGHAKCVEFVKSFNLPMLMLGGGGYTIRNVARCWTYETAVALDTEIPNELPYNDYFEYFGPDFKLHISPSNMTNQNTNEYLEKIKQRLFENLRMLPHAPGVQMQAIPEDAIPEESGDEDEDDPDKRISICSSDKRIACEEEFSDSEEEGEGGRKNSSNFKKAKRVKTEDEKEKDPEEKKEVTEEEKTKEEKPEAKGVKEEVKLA

[19] = target: T7, Histone deacetylase 2; experiment: Inhibition of human HDAC2 expressed in Sf9 cells using carboxyfluorescein (FAM)-labeled acetylated peptide substrate preincubated for 3 hrs by microfluidic capillary electrophoresis
[20] = target: Histone deacetylase 4 (Homo sapiens, UniProt P56524); experiment: Inhibition of human HDAC4 expressed in baculovirus infected sf9 cells using carboxyfluorescein (FAM)-labeled acetylated peptide substrate by microfluidic capillary electrophoresis
Chain of Histone deacetylase 4 (P56524 whole entry): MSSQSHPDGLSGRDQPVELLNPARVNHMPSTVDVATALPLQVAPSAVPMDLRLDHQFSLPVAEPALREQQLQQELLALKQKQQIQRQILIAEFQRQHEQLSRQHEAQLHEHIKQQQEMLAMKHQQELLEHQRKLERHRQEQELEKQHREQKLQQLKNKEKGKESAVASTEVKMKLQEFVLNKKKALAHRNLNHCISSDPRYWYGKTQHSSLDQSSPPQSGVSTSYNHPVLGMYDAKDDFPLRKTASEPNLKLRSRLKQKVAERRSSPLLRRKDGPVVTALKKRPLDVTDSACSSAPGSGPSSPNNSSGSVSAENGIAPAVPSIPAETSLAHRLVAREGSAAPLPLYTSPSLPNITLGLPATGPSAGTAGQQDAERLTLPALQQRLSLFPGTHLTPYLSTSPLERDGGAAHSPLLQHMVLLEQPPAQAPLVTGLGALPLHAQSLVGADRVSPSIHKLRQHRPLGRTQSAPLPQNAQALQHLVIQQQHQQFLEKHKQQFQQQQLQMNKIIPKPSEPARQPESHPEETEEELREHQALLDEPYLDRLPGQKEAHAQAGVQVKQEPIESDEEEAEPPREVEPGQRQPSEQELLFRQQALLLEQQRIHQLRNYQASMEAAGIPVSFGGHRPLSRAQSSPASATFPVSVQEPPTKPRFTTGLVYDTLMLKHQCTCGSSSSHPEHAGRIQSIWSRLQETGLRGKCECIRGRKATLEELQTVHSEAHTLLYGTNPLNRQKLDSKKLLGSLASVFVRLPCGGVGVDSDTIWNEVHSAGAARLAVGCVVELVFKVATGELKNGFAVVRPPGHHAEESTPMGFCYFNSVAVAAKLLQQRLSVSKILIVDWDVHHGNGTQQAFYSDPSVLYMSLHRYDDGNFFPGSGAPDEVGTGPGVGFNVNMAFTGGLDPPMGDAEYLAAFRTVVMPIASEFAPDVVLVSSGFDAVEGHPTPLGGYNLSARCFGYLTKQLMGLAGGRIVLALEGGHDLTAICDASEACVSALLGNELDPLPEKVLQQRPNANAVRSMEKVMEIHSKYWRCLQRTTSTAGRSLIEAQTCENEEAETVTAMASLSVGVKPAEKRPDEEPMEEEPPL

[21] = target: T2, Histone deacetylase 5; experiment: Inhibition of human HDAC5 using carboxyfluorescein (FAM)-labeled acetylated peptide substrate by microfluidic capillary electrophoresis
[22] = target: T8, Protein deacetylase HDAC6; experiment: Inhibition of HDAC6 (unknown origin) using carboxyfluorescein (FAM)-labeled acetylated peptide substrate by microfluidic capillary electrophoresis
[23] = target: T3, Histone deacetylase 7; experiment: Inhibition of human N-terminal GST-tagged HDAC7 (518 to end residues) expressed in baculovirus infected sf9 cells using carboxyfluorescein (FAM)-labeled acetylated peptide substrate by microfluidic capillary electrophoresis
[24] = target: T1, Histone deacetylase 8; experiment: Inhibition of recombinant human C-terminal His-tagged HDAC8 expressed in baculovirus infected sf9 cells using carboxyfluorescein (FAM)-labeled acetylated peptide substrate by microfluidic capillary electrophoresis
[25] = target: T4, Histone deacetylase 9; experiment: Inhibition of C-terminal His-tagged human HDAC9 (604 to 1066 residues) expressed in baculovirus infected sf9 cells using carboxyfluorescein (FAM)-labeled acetylated peptide substrate by microfluidic capillary electrophoresis

## O=C(NO)c1ccc(CN2CCCc3cc(Cl)ccc32)cc1
[1]
  IC50: 30 µM
[2]
  IC50: 4 µM
[3]
  IC50: 4 µM
[4]
  IC50: 5 µM
[5]
  IC50: 4 µM
[6]
  IC50: 26 µM
[7]
  IC50: 6 µM
[8]
  IC50: 33 µM

## O=C(NO)c1cnc(C2(c3ccccc3)CCC(F)(F)CC2)nc1
[9]
  Ratio IC50: > 250
[10]
  Ratio IC50: > 250
[11]
  Ratio IC50: > 250
[12]
  IC50: 0.003 µM
[13]
  Ratio IC50: > 250
[14]
  Ratio IC50: > 250
[15]
  Ratio IC50: > 250
[16]
  Ratio IC50: > 250
[17]
  Ratio IC50: > 250

## CC(=O)Nc1ccc(C(=O)Nc2ccc(F)cc2N)cc1
[18]
  IC50: 1 µM
[19]
  IC50: 1 µM
[20]
  IC50: > 30 µM
[21]
  IC50: > 30 µM
[22]
  IC50: > 30 µM
[23]
  IC50: > 30 µM
[24]
  IC50: > 30 µM
[25]
  IC50: > 30 µM
